Experimental data: ChEMBL document CHEMBL2073865 (Drug Metab Dispos, 2004)
Where a name gives a salt, the structure may show the parent alone.

Assays:
Assay type in all cases: functional, cell-based
[1] = molecular target: T1, ATP-dependent translocase ABCB1 (Homo sapiens, UniProt P08183); assay: TP_TRANSPORTER: transepithelial transport of erythromycin in the presence of 3-Carboxy-4-methyl-5-propyl-2-furanpropanoic acid at 500uM and 1mM in MDR1-expressing MDCK cells; settings: dog
[2] = molecular target: T1, ATP-dependent translocase ABCB1; assay: TP_TRANSPORTER: transepithelial transport of erythromycin in the presence of Hippurate at 2mM in MDR1-expressing MDCK cells; settings: dog, 2000 µM
[3] = molecular target: T1, ATP-dependent translocase ABCB1; assay: TP_TRANSPORTER: transepithelial transport of erythromycin in the presence of Indoxyl sulfate at 1mM in MDR1-expressing MDCK cells; settings: dog, 1000 µM

T1 sequence (P08183 whole entry): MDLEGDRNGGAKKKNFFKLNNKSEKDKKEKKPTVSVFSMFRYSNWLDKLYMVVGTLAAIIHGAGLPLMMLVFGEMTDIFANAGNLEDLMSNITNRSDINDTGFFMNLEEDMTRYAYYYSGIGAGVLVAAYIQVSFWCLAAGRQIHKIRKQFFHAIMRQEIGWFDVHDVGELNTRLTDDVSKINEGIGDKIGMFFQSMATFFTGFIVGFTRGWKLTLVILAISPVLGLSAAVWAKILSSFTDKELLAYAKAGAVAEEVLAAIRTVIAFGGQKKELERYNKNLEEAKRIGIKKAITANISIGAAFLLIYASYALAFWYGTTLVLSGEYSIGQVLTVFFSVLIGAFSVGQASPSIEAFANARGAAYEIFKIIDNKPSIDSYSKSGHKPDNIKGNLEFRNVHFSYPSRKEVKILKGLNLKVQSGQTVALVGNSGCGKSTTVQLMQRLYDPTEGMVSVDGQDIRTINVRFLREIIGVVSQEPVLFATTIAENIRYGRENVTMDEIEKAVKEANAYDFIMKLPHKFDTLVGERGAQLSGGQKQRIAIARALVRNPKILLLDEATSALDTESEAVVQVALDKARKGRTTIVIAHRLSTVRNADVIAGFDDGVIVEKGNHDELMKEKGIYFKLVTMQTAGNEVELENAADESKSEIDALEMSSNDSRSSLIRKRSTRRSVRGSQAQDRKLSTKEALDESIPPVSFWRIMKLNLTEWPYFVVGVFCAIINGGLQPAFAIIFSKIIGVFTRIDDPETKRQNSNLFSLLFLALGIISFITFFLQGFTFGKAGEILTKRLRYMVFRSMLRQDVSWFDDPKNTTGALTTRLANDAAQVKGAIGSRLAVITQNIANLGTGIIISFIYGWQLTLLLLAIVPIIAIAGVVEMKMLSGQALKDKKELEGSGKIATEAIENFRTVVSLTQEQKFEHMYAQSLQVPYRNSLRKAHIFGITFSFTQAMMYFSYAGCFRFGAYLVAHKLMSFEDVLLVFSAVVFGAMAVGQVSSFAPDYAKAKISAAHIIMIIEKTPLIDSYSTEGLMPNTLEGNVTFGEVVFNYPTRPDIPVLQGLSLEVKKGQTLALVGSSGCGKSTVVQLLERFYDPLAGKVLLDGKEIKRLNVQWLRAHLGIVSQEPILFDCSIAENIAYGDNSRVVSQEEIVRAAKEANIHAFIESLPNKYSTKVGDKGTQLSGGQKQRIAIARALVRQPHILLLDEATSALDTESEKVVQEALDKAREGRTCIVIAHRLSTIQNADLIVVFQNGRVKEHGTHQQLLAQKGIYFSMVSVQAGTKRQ

CCCc1oc(CCC(=O)O)c(C(=O)O)c1C
Activity [1]: is not an inhibitor [-]

O=C(O)CNC(=O)c1ccccc1 [HIPPURIC ACID]
Activity [2]: is not an inhibitor [-]

O=S(=O)(O)Oc1c[nH]c2ccccc12 [INDOXYL SULFATE]
Activity [3]: is not an inhibitor [-]
